In paper PMC4823954, “From fighting depression to conquering tumors: a novel tricyclic thiazepine compound as a tubulin polymerization inhibitor” (Cell Death & Disease, 2016):
pEC50: −log10 of the molar value.

Assays:
NHFB = test: Cell viability assay (sulforhodamine B); type: cell-based; conditions: Fibroblast; NHFB normal human fibroblasts, 72 h
Procedure: All biological reagents and solvents were obtained from commercial suppliers and used as recommended. The human NSCLC cell line H460 and P-gp-overexpressing drug-resistant cell line H460TaxR were cultured in RPMI-1640 medium supplemented with 10% fetal bovine serum, 100 units/ml penicillin and […] streptomycin. The NHFB cell line NHFB was cultured in DMEM with the same supplements. All cells were maintained in a 37 °C incubator with 95% humidity and 5% CO2.
The cell viability was determined using the sulforhodamine B assay.[64] In brief, cells (4000 cells in 100 μl medium) were seeded in 96-well culture plates and incubated for 24 h. The cells were treated with the compounds or with an equal volume (0.1%) of DMSO for 72 h. The cell viability was calculated using the following formula: cell viability=Atreatment/Acontrol. The EC50 values were determined using the Sigma Plot 10.0 software package (Systat Software Inc., San Jose, CA, USA).

[1] = parallel artificial membrane permeability assay (PAMPA); type: in vitro ADME
Excerpt: (§1) As in vivo investigations are generally time consuming and expensive, it is advantageous to eliminate those compounds that are not suitable for animal experiments. One of the necessary steps is to screen the initial hits using assays testing their possible behaviors in vivo. To evaluate the drug-like properties of TBPT, a panel of in vitro assays was preformed (Table 1). The parallel artificial membrane permeability assay (PAMPA) was used to evaluate the cell permeability of the compounds. Compounds with a Pe >[…] are classified as highly permeable. […] The Caco-2 assay was used to predict the oral absorption values of the compounds in vivo. Compounds with a Caco-2 efflux ratio >2 may be subject to active efflux and should not be developed further. […] The half-life (T1/2) in human liver microsomes is used to predict the metabolism properties of compounds in vivo. […] A very long T1/2 (>24 h) increases the risk of cumulative toxicity and is not desirable. […] T1/2 in plasma indicates the stability of the drug in human blood; the high T1/2 values of these compounds indicated better stability in vivo. Plasma protein binding influences the distribution of drugs into body tissues, and compounds with high plasma protein binding (>99%) are limited in terms of the amount of free compound that are available to act on the targeted tissue. […]

plasma stability = type: in vitro ADME; conditions: human, read-out: T1/2 in human plasma
Excerpt: as §1

H460TaxR [2] = test: Apoptosis flow cytometry (PI/Annexin V-FITC); type: cell-based, human; conditions: NSCLC cells (H460TaxR), 2 μM, 48 h
H460 [3] = test: Apoptosis flow cytometry (PI/Annexin V-FITC); type: cell-based, human; conditions: NSCLC cells (H460), 2 μM, 48 h
H460TaxR [4] = test: Immunofluorescence staining for microtubule structure; type: cell-based, human; conditions: 2 μM, 24 h
Procedure: (§2) The cells were washed in PBS and then fixed in paraformaldehyde (4% v/v) for 10 min. After the cells were washed three times in PBS, they were blocked with 5% (w/v) BSA for 30 min at RT. Then, α-tubulin antibody (CST, Beverly, MA, USA) was incubated with cells in a humid chamber overnight at 4 °C. After the cells were washed three times in PBS, they were incubated with goat anti-rabbit IgG-FITC (Jackson ImmunoResearch, West Grove, PA, USA) for 1 h at 37 °C. Then, the cells were mounted with mounting medium containing DAPI (Vector Lab, Peterborough, UK) after they were washed three times in PBS. Finally, the cells were observed and imaged using a fluorescence microscope (Olympus IX71, Tokyo, Japan).

H460 [5] = test: as above; type: cell-based, human; conditions: H460, 2 μM, 24 h
Procedure: as §2

[6] = target: T1, ABL1(E255K)-phosphorylated (Homo sapiens, UniProt P00519, E255K); test: KINOMEscan; type: binding; conditions: read-out: % Ctrl
T1 construct: purchased DiscoveRx KINOMEscan

[7] = target: T2, ABL1(F317I)-phosphorylated (Homo sapiens, UniProt P00519, F317I); test: KINOMEscan; type: binding; conditions: read-out: % Ctrl
T2 construct: purchased DiscoveRx KINOMEscan

[8] = target: T3, ABL1(H396P)-phosphorylated (Homo sapiens, UniProt P00519, H396P); test: KINOMEscan; type: binding; conditions: read-out: % Ctrl
T3 construct: purchased DiscoveRx KINOMEscan

EGFR(L858R) = target: T4, EGFR(L858R) (Homo sapiens, UniProt P00533, L858R); test: KINOMEscan; type: binding; conditions: read-out: % Ctrl
T4 construct: purchased DiscoveRx KINOMEscan
T4 sequence (P00533 25-1210 L858R): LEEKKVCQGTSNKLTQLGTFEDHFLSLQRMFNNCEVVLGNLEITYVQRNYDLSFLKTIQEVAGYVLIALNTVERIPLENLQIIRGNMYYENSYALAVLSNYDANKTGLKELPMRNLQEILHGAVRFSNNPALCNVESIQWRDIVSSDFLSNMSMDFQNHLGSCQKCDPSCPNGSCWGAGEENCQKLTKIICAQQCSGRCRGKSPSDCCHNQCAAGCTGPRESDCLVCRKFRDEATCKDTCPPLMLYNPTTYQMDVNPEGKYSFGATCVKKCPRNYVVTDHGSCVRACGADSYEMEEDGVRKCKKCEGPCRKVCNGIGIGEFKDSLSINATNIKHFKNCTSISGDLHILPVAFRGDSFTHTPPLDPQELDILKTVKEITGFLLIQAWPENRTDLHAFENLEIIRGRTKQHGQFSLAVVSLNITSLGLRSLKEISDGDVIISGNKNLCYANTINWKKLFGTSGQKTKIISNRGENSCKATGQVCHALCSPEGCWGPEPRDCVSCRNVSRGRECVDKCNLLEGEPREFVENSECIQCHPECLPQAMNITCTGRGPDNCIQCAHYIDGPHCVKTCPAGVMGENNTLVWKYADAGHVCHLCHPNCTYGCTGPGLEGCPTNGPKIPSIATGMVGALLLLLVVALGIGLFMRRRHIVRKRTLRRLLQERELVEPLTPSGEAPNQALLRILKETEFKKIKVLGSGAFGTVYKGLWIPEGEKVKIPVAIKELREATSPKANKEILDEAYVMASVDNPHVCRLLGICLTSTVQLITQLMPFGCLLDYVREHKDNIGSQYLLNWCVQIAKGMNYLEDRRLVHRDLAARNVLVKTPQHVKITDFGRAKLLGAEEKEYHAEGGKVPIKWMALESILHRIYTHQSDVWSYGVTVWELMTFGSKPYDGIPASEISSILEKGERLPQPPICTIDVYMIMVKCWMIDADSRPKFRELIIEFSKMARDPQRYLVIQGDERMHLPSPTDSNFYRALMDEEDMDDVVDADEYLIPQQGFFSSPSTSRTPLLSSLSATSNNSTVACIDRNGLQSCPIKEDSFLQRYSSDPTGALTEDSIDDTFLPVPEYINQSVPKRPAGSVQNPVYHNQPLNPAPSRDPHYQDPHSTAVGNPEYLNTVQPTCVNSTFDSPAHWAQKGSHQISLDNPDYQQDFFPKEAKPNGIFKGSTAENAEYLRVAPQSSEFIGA

FLT3(ITD) = test: KINOMEscan; type: binding, human
Procedure: The binding assay for 442 non-mutant kinases was performed using KINOMEscan (DiscoveRx Corporation, Fremont, CA, USA) as reported previously.[58], [59] TBPT was screened at concentrations of 5 and 10 μM to identify the affected kinases. KINOMEscan is based on a competition reaction that quantitatively measures the ability of a test compound to compete with an active site-directed ligand for binding to the kinase active site. […] After the assay plates were incubated with shaking for 1 h, the liganded beads were washed with washing buffer (1 × PBS and 0.05% Tween 20). Then, the beads were re-suspended in elution buffer (1 × PBS, 0.05% Tween 20, and 0.5 μM ligand) and incubated with shaking for 30 min. The kinase concentration in the eluates was measured via qPCR. The results are represented as ‘%Ctrl', which was calculated using the following formula: (test compound signal–positive control signal)/(DMSO signal–positive control signal) × 100%. A lower % Ctrl indicates stronger binding to the kinase active site.

FLT3(K663Q) = target: T5, FLT3(K663Q) (Homo sapiens, UniProt P36888, K663Q); test: KINOMEscan; type: binding; conditions: read-out: % Ctrl
T5 construct: purchased DiscoveRx KINOMEscan

LRRK2(G2019S) = target: T6, LRRK2(G2019S) (Homo sapiens, UniProt Q5S007, G2019S); test: KINOMEscan; type: binding; conditions: read-out: % Ctrl
T6 construct: purchased DiscoveRx KINOMEscan
T6 sequence (Q5S007 whole entry G2019S): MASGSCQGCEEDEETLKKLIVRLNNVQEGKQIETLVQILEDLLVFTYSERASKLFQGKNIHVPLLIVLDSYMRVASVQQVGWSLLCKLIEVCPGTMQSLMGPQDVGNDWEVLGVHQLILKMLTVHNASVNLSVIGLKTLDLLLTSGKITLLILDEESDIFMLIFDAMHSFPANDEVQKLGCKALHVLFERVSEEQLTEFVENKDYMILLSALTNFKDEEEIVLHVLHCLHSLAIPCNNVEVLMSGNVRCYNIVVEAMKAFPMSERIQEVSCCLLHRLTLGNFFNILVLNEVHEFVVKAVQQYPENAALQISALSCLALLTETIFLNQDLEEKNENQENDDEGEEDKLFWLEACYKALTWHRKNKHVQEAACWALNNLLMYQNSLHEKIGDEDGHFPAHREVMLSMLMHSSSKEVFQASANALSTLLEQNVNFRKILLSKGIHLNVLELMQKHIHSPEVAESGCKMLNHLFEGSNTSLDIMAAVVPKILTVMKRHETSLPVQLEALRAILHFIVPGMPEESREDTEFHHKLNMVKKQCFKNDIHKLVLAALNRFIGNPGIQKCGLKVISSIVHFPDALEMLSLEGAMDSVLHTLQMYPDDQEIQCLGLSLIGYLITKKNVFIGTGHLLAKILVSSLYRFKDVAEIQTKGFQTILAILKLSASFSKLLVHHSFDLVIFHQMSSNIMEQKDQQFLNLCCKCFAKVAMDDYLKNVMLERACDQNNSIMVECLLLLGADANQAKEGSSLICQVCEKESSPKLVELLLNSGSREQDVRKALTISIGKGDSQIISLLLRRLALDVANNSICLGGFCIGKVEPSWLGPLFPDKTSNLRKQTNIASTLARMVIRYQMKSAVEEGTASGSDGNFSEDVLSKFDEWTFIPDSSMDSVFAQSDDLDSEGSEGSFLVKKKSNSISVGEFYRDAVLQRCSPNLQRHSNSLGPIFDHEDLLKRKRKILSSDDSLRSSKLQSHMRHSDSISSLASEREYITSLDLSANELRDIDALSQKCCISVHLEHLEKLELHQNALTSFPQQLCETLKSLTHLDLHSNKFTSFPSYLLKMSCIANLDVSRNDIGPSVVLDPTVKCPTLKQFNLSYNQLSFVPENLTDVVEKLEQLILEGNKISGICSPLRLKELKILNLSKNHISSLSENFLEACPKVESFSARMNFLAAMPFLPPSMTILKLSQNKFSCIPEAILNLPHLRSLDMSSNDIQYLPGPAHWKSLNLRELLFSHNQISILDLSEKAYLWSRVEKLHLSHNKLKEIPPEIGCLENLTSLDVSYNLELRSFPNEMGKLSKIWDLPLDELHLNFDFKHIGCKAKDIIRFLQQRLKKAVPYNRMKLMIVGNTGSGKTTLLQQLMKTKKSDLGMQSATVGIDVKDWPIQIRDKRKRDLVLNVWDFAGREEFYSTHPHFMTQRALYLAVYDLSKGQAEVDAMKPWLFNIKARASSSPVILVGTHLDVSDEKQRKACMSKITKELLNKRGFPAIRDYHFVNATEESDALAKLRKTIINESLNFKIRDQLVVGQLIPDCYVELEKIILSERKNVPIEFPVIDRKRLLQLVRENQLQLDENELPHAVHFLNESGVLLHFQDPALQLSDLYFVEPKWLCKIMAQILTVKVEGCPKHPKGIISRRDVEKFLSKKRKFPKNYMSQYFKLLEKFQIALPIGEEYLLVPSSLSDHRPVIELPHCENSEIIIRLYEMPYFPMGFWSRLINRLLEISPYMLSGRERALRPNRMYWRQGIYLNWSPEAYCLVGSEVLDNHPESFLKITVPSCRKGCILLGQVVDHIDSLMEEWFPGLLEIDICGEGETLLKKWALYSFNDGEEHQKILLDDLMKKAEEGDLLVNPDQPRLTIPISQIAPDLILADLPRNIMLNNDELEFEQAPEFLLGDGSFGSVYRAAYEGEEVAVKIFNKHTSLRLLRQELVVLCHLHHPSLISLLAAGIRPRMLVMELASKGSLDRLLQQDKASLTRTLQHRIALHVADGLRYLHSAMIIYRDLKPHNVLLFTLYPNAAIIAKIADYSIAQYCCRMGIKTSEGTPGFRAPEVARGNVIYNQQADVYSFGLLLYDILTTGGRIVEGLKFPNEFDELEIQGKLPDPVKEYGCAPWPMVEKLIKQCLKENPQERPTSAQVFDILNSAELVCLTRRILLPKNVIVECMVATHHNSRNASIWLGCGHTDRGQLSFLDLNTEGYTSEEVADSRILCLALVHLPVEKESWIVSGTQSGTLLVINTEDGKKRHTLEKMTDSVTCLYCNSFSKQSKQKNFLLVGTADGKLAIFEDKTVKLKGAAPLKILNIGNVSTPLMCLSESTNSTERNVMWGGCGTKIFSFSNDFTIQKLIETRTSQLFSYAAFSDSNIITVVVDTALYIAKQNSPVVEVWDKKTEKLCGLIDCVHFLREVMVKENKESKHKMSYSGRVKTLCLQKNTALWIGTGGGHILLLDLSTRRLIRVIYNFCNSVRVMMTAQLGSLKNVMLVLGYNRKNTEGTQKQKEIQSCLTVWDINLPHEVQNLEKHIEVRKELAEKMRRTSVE

RET(M918T) = target: T7, RET(M918T) (Homo sapiens, UniProt P07949, M918T); test: KINOMEscan; type: binding; conditions: read-out: % Ctrl
T7 construct: purchased DiscoveRx KINOMEscan
T7 sequence (P07949 29-1114 M918T): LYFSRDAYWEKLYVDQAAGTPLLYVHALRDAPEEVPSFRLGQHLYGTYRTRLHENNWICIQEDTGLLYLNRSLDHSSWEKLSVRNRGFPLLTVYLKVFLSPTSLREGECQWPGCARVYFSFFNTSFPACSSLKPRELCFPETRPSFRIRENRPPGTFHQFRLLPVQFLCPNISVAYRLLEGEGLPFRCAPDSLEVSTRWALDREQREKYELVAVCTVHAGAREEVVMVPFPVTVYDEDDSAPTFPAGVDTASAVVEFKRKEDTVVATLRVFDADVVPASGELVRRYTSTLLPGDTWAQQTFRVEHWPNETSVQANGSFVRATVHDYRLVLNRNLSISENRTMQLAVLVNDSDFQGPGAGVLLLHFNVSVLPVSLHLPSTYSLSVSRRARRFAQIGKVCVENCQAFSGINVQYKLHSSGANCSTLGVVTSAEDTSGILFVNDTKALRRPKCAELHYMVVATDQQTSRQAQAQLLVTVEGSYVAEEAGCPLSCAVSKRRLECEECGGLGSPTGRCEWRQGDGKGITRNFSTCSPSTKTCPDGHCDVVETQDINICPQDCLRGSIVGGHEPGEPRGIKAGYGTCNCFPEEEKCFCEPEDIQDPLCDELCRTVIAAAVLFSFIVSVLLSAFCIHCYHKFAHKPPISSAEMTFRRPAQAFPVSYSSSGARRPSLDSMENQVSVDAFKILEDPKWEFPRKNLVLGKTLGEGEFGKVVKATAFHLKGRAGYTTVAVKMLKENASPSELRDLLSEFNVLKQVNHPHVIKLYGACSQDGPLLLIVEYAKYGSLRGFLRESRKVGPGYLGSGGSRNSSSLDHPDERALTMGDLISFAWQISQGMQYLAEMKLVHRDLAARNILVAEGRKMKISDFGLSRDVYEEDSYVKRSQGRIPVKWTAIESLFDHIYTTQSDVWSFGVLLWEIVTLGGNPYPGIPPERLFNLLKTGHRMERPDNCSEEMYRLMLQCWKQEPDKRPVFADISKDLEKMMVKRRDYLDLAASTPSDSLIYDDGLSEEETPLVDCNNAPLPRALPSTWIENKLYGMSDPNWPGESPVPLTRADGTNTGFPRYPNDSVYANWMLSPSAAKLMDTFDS

RET(V804L) = target: T8, RET(V804L) (Homo sapiens, UniProt P07949, V804L); test: KINOMEscan; type: binding; conditions: read-out: % Ctrl
T8 construct: purchased DiscoveRx KINOMEscan
T8 sequence (P07949 29-1114 V804L): as the sequence (P07949 29-1114 M918T) above, with V776L, T890M counted along it

For `Cc1ccc(C2=Nc3cccnc3S(=O)(=O)c3ccccc32)cc1` [TBPT, 6-(p-tolyl)benzo[f] pyrido[2,3-b][1,4] thiazepine 11,11-dioxide], the pEC50 (NHFB) was < 4.00, the “PAMPA Pe” value [1] was 1081.1±30.2 10^−6cm/s and the half-life (plasma stability) was > 50 h. The “cells in an apoptotic/necrotic state” value (H460TaxR [2]) was “approximately 50%”, the “cells in an apoptotic/necrotic state” value (H460 [3]) was “approximately 50%” and the “microtubule organization in live cells” value (H460TaxR [4]) was “disordered microtubule fragments”. The “microtubule organization in live cells” value (H460 [5]) was “disordered microtubule fragments”, the remaining binding at 5 µM ([6]; 5 μM) was 60% and the remaining binding at 10 µM ([6]; 10 μM) was 89%. The remaining binding at 5 µM ([7]; 5 μM) was 78%, the remaining binding at 10 µM ([7]; 10 μM) was 81% and the remaining binding at 5 µM ([8]; 5 μM) was 68%. The remaining binding at 10 µM ([8]; 10 μM) was 92%, the remaining binding at 5 µM (EGFR(L858R); 5 μM) was 85% and the remaining binding at 10 µM (EGFR(L858R); 10 μM) was 100%. For the same compound, the “% Ctrl” value (FLT3(ITD); 5 μM) was 95%, the “% Ctrl” value (FLT3(ITD); 10 μM) was 100% and the remaining binding at 5 µM (FLT3(K663Q); 5 μM) was 84%. For the same compound, the remaining binding at 10 µM (FLT3(K663Q); 10 μM) was 94%, the remaining binding at 5 µM (LRRK2(G2019S); 5 μM) was 86% and the remaining binding at 10 µM (LRRK2(G2019S); 10 μM) was 99%. For the same compound, the remaining binding at 5 µM (RET(M918T); 5 μM) was 99%, the remaining binding at 10 µM (RET(M918T); 10 μM) was 99% and the remaining binding at 5 µM (RET(V804L); 5 μM) was 100%. The remaining binding at 10 µM (RET(V804L); 10 μM) was 86%.
